From patent publication US12110510B2, “Functional cortico-spinal-muscle assembled spheroids” (The Board of Trustees of the Leland Stanford Junior …, priority 2018, dated 2024)
Entries after “also recorded” stand apart in the source; their conditions may differ. Each block holds one molecule with its values, some of them ahead of it.

What was measured:
[1] = test system: hCS-hSpS-hSkM assembloids; assay: Optogenetic stimulation of hCS in hCS-hSpS-hSkM assembloids, muscle displacement; assay type: cell-based, human; conditions: NBQX (50 μM) and APV (50 μM) added together; Chrim-expressing hCS, 625 nm
Source text: Glutamate uncaging and optogenetic stimulation.
Contraction analysis. […] The mean covariance per field was plotted.

[2] = test system: hSpS; assay: Combinatorial growth factor matrix, gene expression of 16 markers at day 20; assay type: cell-based, human
Source text: To establish hSpS differentiation conditions, we designed a combinatorial approach, where we used FGF-2, RA, and WNT and SHH modulators at varying concentrations following neural ectoderm specification of early spheroids. […] Briefly, hiPS cell colonies were lifted from plates using the enzyme dispase, moved to ultra-low attachment plates to form spheroids and exposed to dual SMAD inhibition as we have previously described. Starting on day 4 of in vitro differentiation, neural spheroids were exposed to 3 μM of the WNT activator CHIR-99021, and to 20 ng/ml EGF from day 6 onward. Neural spheroids also received a combination of RA (0.01 or 0.1 μM) and FGF-2 (0, 10 or 20 ng/ml) from day 6, and the SHH activator smoothened agonist (SAG; 0, 0.01, 0.1 or 1 μM) from day 11.
For the combinatorial growth factor matrix, small molecules were added on the same days as described above, and the concentrations for dual SMAD inhibitors, CHIR 99021 and EGF were the same as above. From day 7, the neural medium was changed every other day until day 20, when spheres were collected. No DAPT was added for this experiment.
Real-time quantitative PCR (qPCR). For qPCR analysis of spheroids, at least 2-3 spheroids were pooled per sample. mRNA was isolated using the RNeasy Mini kit and RNase-Free DNase set (Qiagen), and template cDNA was prepared by reverse transcription using the SuperScript Ill First-Strand Synthesis SuperMix for qRT-PCR (Life Technologies). qPCR was performed using Sybr Green (Roche) on a ViiA7 machine (Applied Biosystems, Life Technologies).

[3] = test system: hSpS; assay: Single-cell gene expression of hSpS with or without DAPT (BD Rhapsody); assay type: cell-based, human; conditions: hSpS differentiated in the presence of DAPT (2.5 μM, days 19, 21, 23) versus hSpS(−)DAPT; day 45
Experimental: To generate hSpS, hiPS cell medium was supplemented with dual SMAD inhibitors until day 5 and the WNT activator CHIR 99021 (3 μM, Selleckchem) from day 4 to day 18. On day 6, spheroids were transferred to neural medium supplemented with RA (0.1 μM, Sigma-Aldrich), EGF (20 ng ml-1; R&D Systems) and FGF-2 (10 ng ml-1; R&D Systems), with addition of the SHH modulator smoothened agonist (SAG, 0.1 μM, Millipore) from day 11. From day 7, the medium was changed every other day. […] For hSpS, the Notch inhibitor DAPT (2.5 μM, STEMCELL technologies) was added on days 19, 21 and 23. From day 43 onwards, the medium was changed every four to five days.
Single-cell gene expression (BD Rhapsody system). […] Cell labels and molecular indices were identified, and gene identity was determined by alignment against the gencode comprehensive hg19 reference. […] Gene expression profiles of 4,175 and 3,173 cells were recovered for hSpS with or without DAPT, respectively, with an average number of reads of ˜17,000, ˜2,400 molecules and ˜1,400 number of genes detected per cell with average molecular index coverage (that is, the number of times a molecule was sequenced) of 4.8. […]

[4] = test system: hSC; assay: Gene expression analysis (qPCR) of neuronal subtype markers in hSC or hSC+D; assay type: cell-based, human; conditions: DAPT+ condition (2.5 μM) versus hSC; day 30
Experimental: (§1) From day 4 in suspension, cultures were supplemented with the GSK-3 inhibitor CHIR 99021 (3 μM). On day 6, spheroids were transferred to neural medium containing neurobasal-A, B-27 supplement without vitamin A, GlutaMax (1:100), penicillin and streptomycin, and supplemented with retinoic acid (RA, 100 nM), EGF (20 ng/ml) and FGF-2 (10 ng/ml). On day 11 of differentiation spheroids were supplemented with the SHH pathway agonist Smoothened Agonist (SAG, 100 nM), in addition to the compounds described above. From day 7 onwards, media was changed every other day. For the hSC+D condition, spheroids received the gamma-secretase inhibitor DAPT (2.5 μM) on days 19, 21 and 23. From day 19, once the initial fate specification stage is finalized, hSCs were transferred to neural medium containing neurobasal-A, B-27 supplement without vitamin A, N−2 supplement, GlutaMax (1:100), penicillin and streptomycin (1:100), and supplemented with BDNF (20 ng/ml), IGF (10 ng/ml), L-Ascorbic Acid (AA, 200 nM) and cAMP (62.5 nM).

[5] = test system: hSC; assay: Immunocytochemistry of hSC cytoarchitecture; assay type: cell-based, human; conditions: DAPT+ hSC condition; day 45
Experimental: as §1

[6] = test system: hCS-hSpS-hSkM assembloids; assay: Glutamate uncaging in hCS-hSpS-hSkM assembloids, muscle contraction; assay type: cell-based, human
Experimental: (§2) Generation of hSpS-hSkM or hCS-hSpS-hSkM assembloids. To generate neural-muscle assembloids, 3D hSkM that had been in differentiation medium for at least 10 days (see above) were removed from the silicone wells and placed on top of cell culture inserts (0.4 μm pore size; 353090, Corning) that were positioned in 6-well plates containing 2 ml of DMEM/F12 medium supplemented with 1% Non-Essential Amino Acids (NEAA, Life Technologies), 1% Insulin-Transferrin-Selenium (ITS, Life Technologies), 1% penicillin and streptomycin (Life Technologies), L-Ascorbic Acid (AA; 200 nM, Wako) and cAMP (50 nM, Sigma-Aldrich). Next, spheroids (either hSpS or hCS) were placed on the inserts containing 3D hSkM and arranged so that they were in contact with one another and were allowed to interact.
(§3) Glutamate uncaging and optogenetic stimulation. Intact assembloids were imaged under environmentally controlled conditions (37° C., 5% CO2) using a 5× objective in a confocal microscope (Leica SP8). Assembloids, still in transwells, were incubated in the environmentally controlled chamber for 20-30 minutes before imaging. […] At a frame rate of 14.7 frames/sec, a typical stimulation experiment consisted of 500 frames acquired during pre-stimulation, 5 frames of UV stimulation (in specified region of interest, ROI) and 200 frames acquired during poststimulation. For optogenetic stimulation, five pulses of light (625 nm, 68 ms in duration each and ˜68 seconds apart) were delivered using an optical fiber-coupled LED (400 μmdiameter, 13.2 mW; Thorlabs) that was directed towards the hCS.

[7] = test system: hCS-hSkM assembloid; conditions: hCS assembled with hSkM, no hSpS
Experimental: as §2
as §3, with “For optogenetic stimulation, five pulses of light (625 nm, 68 ms in duration each and ˜68 seconds apart) were delivered using an optical fiber-coupled LED (400 μmdiameter, 13.2 mW; Thorlabs) that was directed towards the hCS.” left out

[8] = test system: hSpS-hSkM assembloids; conditions: 405 nm, in the presence of MNI-caged glutamate (3.3 mM)
Experimental: as §2
as §3, with “For optogenetic stimulation, five pulses of light (625 nm, 68 ms in duration each and ˜68 seconds apart) were delivered using an optical fiber-coupled LED (400 μmdiameter, 13.2 mW; Thorlabs) that was directed towards the hCS.” left out

[9] = test system: hSpS-limb assembloids (mouse limb buds); assay: Contraction of hSpS-limb assembloids; assay type: cell-based; conditions: curare 100 μM; 14 days after fusion
Experimental: Co-culture of mouse limb and spheroids. For mouse co-culture experiments, timed-pregnant females were sacrificed at E11.5, embryos were collected, and limb buds dissected (both forelimbs and hindlimbs were used for this experiment). Limbs and spheroids (at D25) were then assembled together by placing them in close proximity in a 1.5 ml microcentrifuge tube for 3 days in an incubator. One limb and one spheroid were placed per tube. On day 2 medium was carefully changed. Neural medium supplemented with N−2 supplement (Life Technologies, 17502048) was used. After assembly, mouse-spheroid cultures were placed in 24-well ultralow-attachment plates (Corning), and medium was changed every other day. For contraction quantification, assembloids were visualized using brightfield illumination in an EVOS FL Cell Imaging System (Life Technologies), and they were deemed to be contracting if they moved within a time-window of 30 seconds. Approval for mouse experiments was obtained from the Stanford University's Administrative Panel on Laboratory Animal Care (APLAC).

[10] = test system: hSkM; assay: hSkM calcium imaging (Cal-590 AM) in 2D co-culture with hSpS; assay type: cell-based, human; conditions: curare 100 μM; 2D hSkM co-cultured with hSpS; 2-minute period
Experimental: hSkM calcium imaging. For calcium imaging co-culture experiments, hSkM were plated on 24-well plates as described above and differentiated with Skeletal Muscle Cell Differentiation Medium. After 6-7 days of exposure to differentiation medium, hSkM were co-cultured with hSpS or hCS. […] One hSpS or hCS were placed per well. hSkM-spheroid co-cultures were left undisturbed for two days, and half medium was carefully replaced every other day thereafter. Calcium imaging was performed after 6-7 days of co-culture. Cultures were incubated with Cal-590 AM (10 μM, AAT Bioquest) and PowerLoad (1:100, Invitrogen) for 30 minutes at 37° C., washed once for 10 minutes with full medium and then imaged. A Leica SP8 confocal microscope with a resonant scanner was used for imaging. Spontaneous calcium activity was recorded for 2 min (10 frames per second) in 6-9 fields per well, and for each field the distance from the spheroid was measured.
Calcium imaging. Calcium imaging data was processed using ImageJ (Fiji) and custom MATLAB routines. […] A total number of 798 (hSkM condition), 652 (hCS+hSkM condition), 1006 (hSpS+hSkM condition) and 727 (hSpS+hSkM+curare condition) hSkM fibers were analyzed. Following ROI registration, raw time-series movies were transformed to relative changes in fluorescence: dF/F(t)=(F(t)−F0)/F0, where F0 represented the 5th percentile value of the time series of each ROI. […]

[11] = test system: hCS-hSC-hSkM assembloid; assay: Glutamate uncaging in hCS-hSC-hSkM assembled spheroids (Example 1), hSkM contraction; conditions: tubocurarine 100 μM
Source text: For cortico-spinal-muscle assembled spheroids, hCS-hSC assembled spheroids were placed on tissue culture inserts and positioned so that hSC was in contact with the 3D hSkM constructs. Media was changed every other day.
The FRAP module of the Leica SP8 confocal microscope was used to uncage glutamate using UV light.

Light induced responses (muscle displacement/contraction) upon hCS optogenetic stimulation [1]: completely abolished
Molecule: NBQX

Molecule: CNC1CCC(N(Cc2cccc(-c3ccncc3)c2)C(=O)c2sc3ccccc3c2Cl)CC1 (centres unmarked) [SAG]
Expression of ventral progenitor marker genes OLIG2, NKX6-1, FOXA2 and post-mitotic markers CHX10 and ISL1 ([2]; high SAG exposure): higher expression

Molecule: C[C@H](NC(=O)Cc1cc(F)cc(F)c1)C(=O)N[C@H](C(=O)OC(C)(C)C)c1ccccc1 [DAPT]
Increase in the proportion of motor neurons [3]: approximately three-fold
Expression of some interneuron markers (GATA3, EN1, EVX1) [4]: lower expression
Expression of the MN markers ISL1 and HB9 [4]: higher expression
Cytoarchitecture of hSC (position of cell bodies and axons) [5]: cell bodies were found on the inside of the spheroid, while axons were found on the outside of hSC

Molecule: FGF-2: growth factor FGF-2 (R&D Systems)
Rostro-caudal fate (HOXA2 expression pattern) ([2]; high levels of RA and low levels of FGF-2): more rostral fates
Rostro-caudal fate (HOXC9 expression) ([2]; low levels of RA and high levels of FGF-2): more caudal fates

Molecule: COc1ccc([N+](=O)[O-])c2c1CCN2C(=O)CC[C@H](N)C(=O)O [MNI-caged glutamate, MNI-caged-L-glutamate]
Muscle contraction upon uncaging in hCS ([6]; 405 nm uncaging on hCS): robust muscle contraction
hSkM contraction upon stimulation of hSpS ([6]; 405 nm uncaging on hSpS): coupled with hSkM contraction
Response to glutamate uncaging of hCS [7]: did not elicit a response
hSkM contraction upon photostimulation of hSpS [8]: resulted in hSkM contraction

Molecule: COc1cc2c3cc1Oc1cc(ccc1O)C[C@@H]1c4c(cc(OC)c(O)c4Oc4ccc(cc4)C[C@@H]3N(C)CC2)CC[N+]1(C)C [curare, (+)-tubocurarine chloride pentahydrate]
Contraction activity in hSpS-limb assembloids [9]: completely blocked
Increase in proportion of active hSkM (spontaneous calcium activity) in hSpS-hSkM [10]: blocked
Muscle contraction upon glutamate uncaging in hCS ([6]; 100 μm curare): blocked; also recorded: stops
hSkM contraction after glutamate uncaging on hSC [11]: blocked

Light induced responses (muscle displacement/contraction) upon hCS optogenetic stimulation [1]: completely abolished
Molecule: N[C@@H](CCCP(=O)(O)O)C(=O)O [APV]
